Reference: ChEMBL document CHEMBL1128777, “Inhibition of metalloproteinase by futoenone derivatives” (Bioorg Med Chem Lett, 1995)

Assays:
[1] = biological target: T1, Interstitial collagenase (Homo sapiens) (UniProt P03956); assay: Inhibition of human recombinant interstitial collagenase MMP-1 at 10 uM
T1 sequence (whole entry): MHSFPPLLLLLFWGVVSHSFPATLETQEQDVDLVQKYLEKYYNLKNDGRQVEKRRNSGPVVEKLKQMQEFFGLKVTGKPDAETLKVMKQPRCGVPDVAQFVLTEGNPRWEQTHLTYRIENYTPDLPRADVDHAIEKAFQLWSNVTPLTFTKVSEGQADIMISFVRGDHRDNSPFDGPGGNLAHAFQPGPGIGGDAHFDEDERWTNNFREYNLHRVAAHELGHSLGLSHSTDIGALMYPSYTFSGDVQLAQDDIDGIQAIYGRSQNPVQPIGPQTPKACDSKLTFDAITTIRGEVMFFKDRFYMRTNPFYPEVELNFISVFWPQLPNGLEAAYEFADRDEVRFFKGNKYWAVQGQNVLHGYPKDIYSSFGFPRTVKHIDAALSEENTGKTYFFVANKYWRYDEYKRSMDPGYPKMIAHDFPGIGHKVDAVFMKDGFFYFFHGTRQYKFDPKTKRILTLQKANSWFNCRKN

[2] = biological target: Matrix metalloproteinase-9 (Homo sapiens) (UniProt P14780); assay: Inhibition of human recombinant 92 kDa gelatinase MMP-9 at 10 uM
Matrix metalloproteinase-9 (Homo sapiens), sequence (P14780 whole entry): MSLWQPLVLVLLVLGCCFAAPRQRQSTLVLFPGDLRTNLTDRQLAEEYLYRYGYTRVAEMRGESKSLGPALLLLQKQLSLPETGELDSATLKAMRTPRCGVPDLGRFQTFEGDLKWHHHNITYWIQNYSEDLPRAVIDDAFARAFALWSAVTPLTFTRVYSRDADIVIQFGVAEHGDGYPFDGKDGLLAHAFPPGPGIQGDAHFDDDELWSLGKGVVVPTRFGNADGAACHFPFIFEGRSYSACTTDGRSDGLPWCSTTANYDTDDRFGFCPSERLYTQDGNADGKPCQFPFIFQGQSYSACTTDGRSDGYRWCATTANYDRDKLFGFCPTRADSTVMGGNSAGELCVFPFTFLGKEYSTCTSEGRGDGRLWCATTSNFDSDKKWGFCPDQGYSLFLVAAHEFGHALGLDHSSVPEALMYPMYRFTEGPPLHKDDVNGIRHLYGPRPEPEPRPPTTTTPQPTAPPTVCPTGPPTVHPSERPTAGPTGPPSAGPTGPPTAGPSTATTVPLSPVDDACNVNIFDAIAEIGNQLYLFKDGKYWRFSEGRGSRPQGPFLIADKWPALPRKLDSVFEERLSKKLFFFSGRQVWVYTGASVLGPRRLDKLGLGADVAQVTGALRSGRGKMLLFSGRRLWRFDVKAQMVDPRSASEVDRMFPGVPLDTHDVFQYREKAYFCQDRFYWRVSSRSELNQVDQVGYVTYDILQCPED

Stromelysin-1 [3] = biological target: T2, Stromelysin-1 (Homo sapiens, UniProt P08254); assay: Inhibition of human recombinant matrix metalloprotease-3 (Stromelysin) at 100 uM
Target sequence in this assay (P08254 whole entry): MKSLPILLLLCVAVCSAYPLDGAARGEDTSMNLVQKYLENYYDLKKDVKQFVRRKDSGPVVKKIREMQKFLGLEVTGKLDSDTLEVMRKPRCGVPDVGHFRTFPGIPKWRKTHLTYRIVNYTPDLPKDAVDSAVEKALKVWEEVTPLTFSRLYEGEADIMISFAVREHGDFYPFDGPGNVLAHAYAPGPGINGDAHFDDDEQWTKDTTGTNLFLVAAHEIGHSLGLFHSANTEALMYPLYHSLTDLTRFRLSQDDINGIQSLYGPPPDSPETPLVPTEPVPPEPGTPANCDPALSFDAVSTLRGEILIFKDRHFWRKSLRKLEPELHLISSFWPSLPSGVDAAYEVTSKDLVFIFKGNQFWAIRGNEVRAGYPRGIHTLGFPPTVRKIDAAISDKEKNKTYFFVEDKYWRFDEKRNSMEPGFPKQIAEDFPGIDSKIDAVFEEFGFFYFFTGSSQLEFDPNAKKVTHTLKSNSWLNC

Stromelysin-1 [4] = biological target: T2, Stromelysin-1; assay: (§1) Inhibition of human recombinant matrix metalloprotease-3 (Stromelysin) at 10 uM
Target sequence in this assay (P08254 100-477 limits assumed): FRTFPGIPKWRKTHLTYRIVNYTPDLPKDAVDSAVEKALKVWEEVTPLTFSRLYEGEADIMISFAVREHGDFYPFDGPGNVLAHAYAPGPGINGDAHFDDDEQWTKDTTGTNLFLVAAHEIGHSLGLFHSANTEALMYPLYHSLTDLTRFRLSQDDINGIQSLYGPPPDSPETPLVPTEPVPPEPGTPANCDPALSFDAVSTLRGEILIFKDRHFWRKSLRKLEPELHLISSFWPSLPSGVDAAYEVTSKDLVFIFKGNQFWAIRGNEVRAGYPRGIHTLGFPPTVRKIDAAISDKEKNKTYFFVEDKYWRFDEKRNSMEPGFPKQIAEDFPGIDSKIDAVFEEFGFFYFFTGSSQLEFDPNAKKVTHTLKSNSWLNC

Stromelysin-1 [5] = biological target: T2, Stromelysin-1; assay: as §1; remark: listed apart in the source
Target sequence in this assay (P08254 whole entry): as the sequence (P08254 whole entry) above

SMILES | inhibition [1] [%] | inhibition [2] [%] | IC50 (Stromelysin-1 [3]) [nM] | inhibition (Stromelysin-1 [4]) [%] | IC50 (Stromelysin-1 [5]) [nM]
CNC(=O)[C@H](Cc1c[nH]c2ccccc12)NC(=O)[C@@H](CC(=O)NO)CC(C)C [ILOMASTAT] | 100 | 100 | 28 | 100 | 
COC1=C[C@]23C[C@H](C[C@H](c4cc5c(cc4Br)OCO5)[C@H]2C)OC3=C(Br)C1=O | 0 | 0 |  | 38 | 
COc1cc2c(cc1SC(C)=O)O[C@@H](C[C@H](c1ccc3c(c1)OCO3)C(C)OC(C)=O)C2 (stereo not given in full) | 23 | 8 |  | 58 | 
COC1=C[C@]23C[C@H](C[C@H](c4ccc5c(c4)OCO5)[C@H]2C)OC3=C(Br)C1=O | 0 | 22 |  | 38 | 
COC1=C[C@]23C[C@H](C[C@H](c4ccc5c(c4)OCO5)[C@H]2C)OC3=CC1=S | 0 | 0 |  | 42 | 
COC1=C[C@]23C[C@H](C[C@H](c4ccc5c(c4)OCO5)[C@H]2C)OC3=CC1=O [FUTOENONE] | 16 | 0 |  | 35 | < 1000

Now from value to molecule:

inhibition [1] [%] | inhibition [2] [%] | IC50 (Stromelysin-1 [3]) [nM] | inhibition (Stromelysin-1 [4]) [%] | IC50 (Stromelysin-1 [5]) [nM] | SMILES
75 | 44 |  | 98 | 600 | COc1cc2c(cc1S)O[C@@H](C[C@H](c1ccc3c(c1)OCO3)C(C)O)C2 (stereo not given in full)
0 | 0 |  | 36 |  | C=CCc1c(O)c(OC)cc2c1O[C@@H](C[C@H](c1ccc3c(c1)OCO3)C(C)O)C2 (stereo not given in full)
0 | 0 |  | 34 |  | COc1cc2c(cc1O)O[C@@H](C[C@H](c1ccc3c(c1)OCO3)C(C)O)C2 (stereo not given in full)
